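Cultured in 96-well plates, cells were exposed to test compound for 48 hours across five concentrations. At the GI50, growth is halved.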 Calls of active or inactive are those of the source. Rule as the data show it: active = GI50 up to about 1.1 µM and inactive = higher.
Experiments:
Assay in all cases: inhibition of tumour cell growth, NCI panel, 48 h
ACHN = test system: ACHN
DU-145 = test system: DU-145
HT-29 = test system: HT-29
Hs-578T = test system: Hs-578T
KM12 = test system: KM12
MOLT-4 = test system: MOLT-4
Malme-3M = test system: Malme-3M
NCI-H226 = test system: NCI-H226
NCI-H522 = test system: NCI-H522
OVCAR-4 = test system: OVCAR-4
OVCAR-8 = test system: OVCAR-8
PC-3 = test system: PC-3
SF-268 = test system: SF-268
SF-539 = test system: SF-539
SW-620 = test system: SW-620
UACC-257 = test system: UACC-257
UACC-62 = test system: UACC-62
NCI/ADR-RES = test system: NCI/ADR-RES
SK-MEL-2 = test system: SK-MEL-2

SMILES: O=C1c2ccccc2/N=C(/c2cc3c(cc2Cl)Sc2nccn2S3(=O)=O)OS(=O)(=O)N1c1ccccc1
- GI50 (ACHN): 25.8 µM (inactive)
- GI50 (DU-145): 37.4 µM (inactive)
- GI50 (HT-29): 23.3 µM (inactive)
- GI50 (Hs-578T): 46.8 µM (inactive)
- GI50 (KM12): 23 µM (inactive)
- GI50 (MOLT-4): 9.33 µM (inactive)
- GI50 (Malme-3M): 73.8 µM (inactive)
- GI50 (NCI-H226): 39.4 µM (inactive)
- GI50 (NCI-H522): 5.31 µM (inactive)
- GI50 (OVCAR-4): 21.1 µM (inactive)
- GI50 (OVCAR-8): 17.4 µM (inactive)
- GI50 (PC-3): 44.4 µM (inactive)
- GI50 (SF-268): 37.3 µM (inactive)
- GI50 (SF-539): 36.7 µM (inactive)
- GI50 (SW-620): 24.9 µM (inactive)
- GI50 (UACC-257): 64.7 µM (inactive)
- GI50 (UACC-62): 20.5 µM (inactive)

SMILES: CN(C)c1ccc(C=c2c3ccccc3n3c2cc(-c2ccc(Cl)cc2)[n+]3C)cc1
- GI50 (ACHN): 0.514 µM (active)
- GI50 (DU-145): 0.177 µM (active)
- GI50 (HT-29): 0.315 µM (active)
- GI50 (KM12): 0.105 µM (active)
- GI50 (MOLT-4): 0.147 µM (active)
- GI50 (Malme-3M): 0.333 µM (active)
- GI50 (NCI-H226): 0.573 µM (active)
- GI50 (NCI-H522): 0.0577 µM (active)
- GI50 (NCI/ADR-RES): 6.41 µM (inactive)
- GI50 (OVCAR-4): 0.748 µM (active)
- GI50 (OVCAR-8): 0.147 µM (active)
- GI50 (PC-3): 0.167 µM (active)
- GI50 (SF-268): 0.473 µM (active)
- GI50 (SF-539): 0.228 µM (active)
- GI50 (SK-MEL-2): 0.237 µM (active)
- GI50 (SW-620): 0.242 µM (active)
- GI50 (UACC-257): 0.158 µM (active)
- GI50 (UACC-62): 0.291 µM (active)

SMILES: CCOc1c2ccsc2c(OCC)c2ccsc12
- GI50 (ACHN): 7.1 µM (inactive)
- GI50 (DU-145): 5 µM (inactive)
- GI50 (HT-29): 3.48 µM (inactive)
- GI50 (Hs-578T): 4.21 µM (inactive)
- GI50 (KM12): 3.77 µM (inactive)
- GI50 (MOLT-4): 3.52 µM (inactive)
- GI50 (Malme-3M): 3.73 µM (inactive)
- GI50 (NCI-H522): 3.27 µM (inactive)
- GI50 (NCI/ADR-RES): 7.05 µM (inactive)
- GI50 (OVCAR-4): > 100 µM (inactive)
- GI50 (OVCAR-8): 6.24 µM (inactive)
- GI50 (PC-3): 3.94 µM (inactive)
- GI50 (SF-268): 9.82 µM (inactive)
- GI50 (SF-539): 2.41 µM (inactive)
- GI50 (SK-MEL-2): > 30.1 µM (inactive)
- GI50 (SW-620): 3.72 µM (inactive)
- GI50 (UACC-257): > 29.1 µM (inactive)
- GI50 (UACC-62): 3.85 µM (inactive)

SMILES: Clc1ccccc1C1SCc2nc3ccccc3n21 (stereo not given)
- GI50 (ACHN): 22.1 µM (inactive)
- GI50 (HT-29): 29.4 µM (inactive)
- GI50 (KM12): 30.8 µM (inactive)
- GI50 (MOLT-4): 23.6 µM (inactive)
- GI50 (Malme-3M): 17.7 µM (inactive)
- GI50 (NCI-H226): 26.2 µM (inactive)
- GI50 (NCI-H522): 9.55 µM (inactive)
- GI50 (OVCAR-4): 18 µM (inactive)
- GI50 (OVCAR-8): 24.2 µM (inactive)
- GI50 (SF-268): 37.1 µM (inactive)
- GI50 (SF-539): 33.5 µM (inactive)
- GI50 (SK-MEL-2): 22 µM (inactive)
- GI50 (SW-620): 43.5 µM (inactive)
- GI50 (UACC-62): > 10 µM (inactive)

SMILES: O=C1c2c(ccc3c2CCC3)CC1Cc1ccc2c(c1)CCC2 (stereo not given)
- GI50 (ACHN): 36.1 µM (inactive)
- GI50 (DU-145): 27.3 µM (inactive)
- GI50 (HT-29): 17.6 µM (inactive)
- GI50 (Hs-578T): 10 µM (inactive)
- GI50 (KM12): 25.2 µM (inactive)
- GI50 (MOLT-4): 13.1 µM (inactive)
- GI50 (Malme-3M): 28.8 µM (inactive)
- GI50 (NCI-H226): 28.2 µM (inactive)
- GI50 (NCI/ADR-RES): 28.2 µM (inactive)
- GI50 (OVCAR-4): 27.5 µM (inactive)
- GI50 (OVCAR-8): 36.3 µM (inactive)
- GI50 (SF-268): 33.7 µM (inactive)
- GI50 (SF-539): 91 µM (inactive)
- GI50 (SK-MEL-2): 27.2 µM (inactive)
- GI50 (SW-620): 17.1 µM (inactive)
- GI50 (UACC-257): 18.5 µM (inactive)
- GI50 (UACC-62): 8.24 µM (inactive)

SMILES: CC1NC(/C(=C/c2ccccc2O)NC(=O)c2ccccc2)OC1=O (stereo not given)
- GI50 (ACHN): 22.4 µM (inactive)
- GI50 (HT-29): > 50 µM (inactive)
- GI50 (KM12): 4.74 µM (inactive)
- GI50 (MOLT-4): > 50 µM (inactive)
- GI50 (Malme-3M): 9.31 µM (inactive)
- GI50 (NCI-H226): > 50 µM (inactive)
- GI50 (NCI-H522): 24.2 µM (inactive)
- GI50 (NCI/ADR-RES): > 50 µM (inactive)
- GI50 (OVCAR-4): > 50 µM (inactive)
- GI50 (OVCAR-8): > 50 µM (inactive)
- GI50 (PC-3): 30.7 µM (inactive)
- GI50 (SF-539): 11.5 µM (inactive)
- GI50 (SK-MEL-2): > 50 µM (inactive)
- GI50 (SW-620): > 50 µM (inactive)
- GI50 (UACC-257): > 50 µM (inactive)
- GI50 (UACC-62): > 50 µM (inactive)

SMILES: N=C(N)c1ccc2oc3ccc(C(=N)N)cc3c(=O)c2c1
- GI50 (ACHN): > 100 µM (inactive)
- GI50 (DU-145): > 100 µM (inactive)
- GI50 (HT-29): > 100 µM (inactive)
- GI50 (KM12): > 100 µM (inactive)
- GI50 (MOLT-4): > 100 µM (inactive)
- GI50 (Malme-3M): 98.2 µM (inactive)
- GI50 (NCI-H226): > 100 µM (inactive)
- GI50 (NCI-H522): > 100 µM (inactive)
- GI50 (NCI/ADR-RES): > 100 µM (inactive)
- GI50 (OVCAR-4): > 100 µM (inactive)
- GI50 (OVCAR-8): > 100 µM (inactive)
- GI50 (PC-3): > 100 µM (inactive)
- GI50 (SF-268): > 100 µM (inactive)
- GI50 (SF-539): > 100 µM (inactive)
- GI50 (SK-MEL-2): > 100 µM (inactive)
- GI50 (SW-620): > 100 µM (inactive)
- GI50 (UACC-257): > 100 µM (inactive)
- GI50 (UACC-62): > 100 µM (inactive)

SMILES: CSc1ncc2c(n1)-c1ccccc1OC2NC(C)(C)C (stereo not given)
- GI50 (ACHN): 92.9 µM (inactive)
- GI50 (DU-145): > 100 µM (inactive)
- GI50 (HT-29): 77.6 µM (inactive)
- GI50 (Hs-578T): 83.4 µM (inactive)
- GI50 (KM12): > 100 µM (inactive)
- GI50 (MOLT-4): 47.2 µM (inactive)
- GI50 (Malme-3M): > 100 µM (inactive)
- GI50 (NCI-H226): 31.4 µM (inactive)
- GI50 (NCI-H522): 27.8 µM (inactive)
- GI50 (OVCAR-4): > 100 µM (inactive)
- GI50 (OVCAR-8): > 100 µM (inactive)
- GI50 (PC-3): > 100 µM (inactive)
- GI50 (SF-268): 87.3 µM (inactive)
- GI50 (SF-539): > 100 µM (inactive)
- GI50 (SW-620): > 100 µM (inactive)
- GI50 (UACC-257): > 100 µM (inactive)
- GI50 (UACC-62): 68.1 µM (inactive)
